From ChEMBL document CHEMBL1133343, “Synthesis and antifungal activity of a ferrocene-fluconazole analogue” (2000)

Columns and labels:
Format in all cases: functional
Candida parapsilosis = assay: Compound was tested for antifungal activity against growth of two strains Candida parapsilosis; details: Lodderomyces parapsilosis
Candida albicans [1] = assay: Compound was tested for antifungal activity against growth of three strains of Candida albicans
Pichia kudriavzevii = assay: Compound was tested for antifungal activity against growth of three strains Candida krusei
Candida albicans [2] = assay: Compound was tested for antifungal activity against growth of two strains Candida glabrata

With OC(Cn1cncn1)(Cn1cncn1)c1ccc(F)cc1F [FLUCONAZOLE] the MIC80 (Candida parapsilosis) was less than 12 µg/mL, the MIC80 (Candida albicans [1]) was less than 1.5 µg/mL and the MIC80 (Pichia kudriavzevii) was greater than 48 µg/mL. For the same molecule, the MIC80 (Candida albicans [2]) was greater than 48 µg/mL.
